Assay [1] has as its target T1, Delta(24)-sterol reductase (Homo sapiens, UniProt Q15392).
T1 sequence (Q15392 whole entry): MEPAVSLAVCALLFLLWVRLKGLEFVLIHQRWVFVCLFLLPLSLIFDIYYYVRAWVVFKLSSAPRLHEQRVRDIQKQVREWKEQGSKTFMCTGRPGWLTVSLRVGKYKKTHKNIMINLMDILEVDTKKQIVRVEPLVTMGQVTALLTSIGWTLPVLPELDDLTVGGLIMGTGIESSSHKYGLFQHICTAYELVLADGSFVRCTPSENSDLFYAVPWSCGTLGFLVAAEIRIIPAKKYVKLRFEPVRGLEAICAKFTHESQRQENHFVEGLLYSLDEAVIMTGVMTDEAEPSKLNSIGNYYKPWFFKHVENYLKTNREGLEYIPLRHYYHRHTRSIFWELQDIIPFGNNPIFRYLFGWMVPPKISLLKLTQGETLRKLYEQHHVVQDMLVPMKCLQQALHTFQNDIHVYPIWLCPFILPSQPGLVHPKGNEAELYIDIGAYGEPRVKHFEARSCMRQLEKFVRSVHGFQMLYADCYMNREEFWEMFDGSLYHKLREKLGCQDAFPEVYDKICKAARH

The target in assay [2] is Atypical kinase COQ8A, mitochondrial (Homo sapiens, UniProt Q8NI60).
Sequence of Atypical kinase COQ8A, mitochondrial (Q8NI60 whole entry): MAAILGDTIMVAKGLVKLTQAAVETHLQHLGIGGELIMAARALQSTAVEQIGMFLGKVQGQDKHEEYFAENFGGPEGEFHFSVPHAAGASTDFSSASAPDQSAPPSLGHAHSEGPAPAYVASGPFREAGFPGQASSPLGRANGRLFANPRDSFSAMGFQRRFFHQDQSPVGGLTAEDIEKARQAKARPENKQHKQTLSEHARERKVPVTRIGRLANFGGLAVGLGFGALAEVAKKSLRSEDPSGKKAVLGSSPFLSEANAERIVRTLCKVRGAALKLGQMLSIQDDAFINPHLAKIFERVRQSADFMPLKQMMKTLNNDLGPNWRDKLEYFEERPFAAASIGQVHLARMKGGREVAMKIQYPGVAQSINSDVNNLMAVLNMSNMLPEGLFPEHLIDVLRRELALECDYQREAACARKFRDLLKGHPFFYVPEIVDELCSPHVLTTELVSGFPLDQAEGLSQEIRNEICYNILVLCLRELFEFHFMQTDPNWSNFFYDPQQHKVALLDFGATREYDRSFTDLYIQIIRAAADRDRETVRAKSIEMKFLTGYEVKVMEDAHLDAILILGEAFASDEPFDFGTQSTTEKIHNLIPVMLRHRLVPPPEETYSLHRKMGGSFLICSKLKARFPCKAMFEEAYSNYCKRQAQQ
The target in assay [3] is T2, Structural maintenance of chromosomes protein 1A (Homo sapiens, UniProt Q14683).
T2 sequence (Q14683 whole entry): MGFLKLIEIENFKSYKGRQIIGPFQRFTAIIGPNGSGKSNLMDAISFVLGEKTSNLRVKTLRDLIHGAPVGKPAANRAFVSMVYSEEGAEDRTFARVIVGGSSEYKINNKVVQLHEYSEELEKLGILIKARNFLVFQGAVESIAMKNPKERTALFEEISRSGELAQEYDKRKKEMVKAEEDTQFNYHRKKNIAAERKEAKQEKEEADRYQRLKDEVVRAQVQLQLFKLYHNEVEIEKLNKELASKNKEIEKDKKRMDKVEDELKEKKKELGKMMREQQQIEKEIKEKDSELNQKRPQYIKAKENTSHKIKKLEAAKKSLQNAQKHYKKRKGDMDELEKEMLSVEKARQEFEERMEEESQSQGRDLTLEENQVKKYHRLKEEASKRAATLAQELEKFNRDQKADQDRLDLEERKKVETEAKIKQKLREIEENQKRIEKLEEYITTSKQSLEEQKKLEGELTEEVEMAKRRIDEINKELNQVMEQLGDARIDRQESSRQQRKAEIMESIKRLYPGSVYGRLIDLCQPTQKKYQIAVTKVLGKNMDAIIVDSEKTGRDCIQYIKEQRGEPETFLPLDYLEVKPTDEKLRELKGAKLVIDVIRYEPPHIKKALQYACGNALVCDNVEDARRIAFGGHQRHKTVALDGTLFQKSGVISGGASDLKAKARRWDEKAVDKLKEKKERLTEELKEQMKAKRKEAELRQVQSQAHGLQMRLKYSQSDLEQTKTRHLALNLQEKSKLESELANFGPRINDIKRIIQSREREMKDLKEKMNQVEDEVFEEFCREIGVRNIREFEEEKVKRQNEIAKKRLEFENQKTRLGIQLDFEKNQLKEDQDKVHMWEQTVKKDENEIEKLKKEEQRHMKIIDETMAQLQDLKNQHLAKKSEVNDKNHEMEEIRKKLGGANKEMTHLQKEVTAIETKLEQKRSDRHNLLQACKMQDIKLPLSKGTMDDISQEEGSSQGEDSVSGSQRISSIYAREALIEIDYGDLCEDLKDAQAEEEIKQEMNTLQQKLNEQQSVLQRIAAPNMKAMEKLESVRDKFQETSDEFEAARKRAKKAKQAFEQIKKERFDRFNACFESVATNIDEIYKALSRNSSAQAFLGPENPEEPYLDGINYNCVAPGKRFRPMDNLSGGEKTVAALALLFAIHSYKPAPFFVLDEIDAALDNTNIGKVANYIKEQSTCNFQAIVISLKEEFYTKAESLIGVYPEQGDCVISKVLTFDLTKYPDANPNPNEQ

Assay [4] concerns the target T3, Serine/threonine-protein kinase A-Raf (Homo sapiens, UniProt P10398).
T3 sequence (P10398 whole entry): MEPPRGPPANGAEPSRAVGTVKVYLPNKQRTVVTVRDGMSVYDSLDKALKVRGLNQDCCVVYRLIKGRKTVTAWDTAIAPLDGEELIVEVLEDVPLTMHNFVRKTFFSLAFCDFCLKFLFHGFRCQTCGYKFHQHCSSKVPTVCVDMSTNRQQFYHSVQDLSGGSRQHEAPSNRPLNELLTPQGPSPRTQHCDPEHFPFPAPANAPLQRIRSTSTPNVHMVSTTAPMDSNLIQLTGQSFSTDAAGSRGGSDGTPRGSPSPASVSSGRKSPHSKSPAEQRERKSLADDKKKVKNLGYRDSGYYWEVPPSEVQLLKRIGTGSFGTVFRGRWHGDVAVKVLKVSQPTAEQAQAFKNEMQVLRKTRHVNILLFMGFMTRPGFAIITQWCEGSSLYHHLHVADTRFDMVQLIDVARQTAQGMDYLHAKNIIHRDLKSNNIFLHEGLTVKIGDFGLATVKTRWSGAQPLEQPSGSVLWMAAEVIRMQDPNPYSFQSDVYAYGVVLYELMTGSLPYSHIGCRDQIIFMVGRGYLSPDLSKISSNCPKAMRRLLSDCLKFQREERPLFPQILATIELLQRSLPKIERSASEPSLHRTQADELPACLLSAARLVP

For another assay, the target named is Activated CDC42 kinase 1 (Homo sapiens, UniProt Q07912).
Sequence of Activated CDC42 kinase 1 (Q07912 whole entry): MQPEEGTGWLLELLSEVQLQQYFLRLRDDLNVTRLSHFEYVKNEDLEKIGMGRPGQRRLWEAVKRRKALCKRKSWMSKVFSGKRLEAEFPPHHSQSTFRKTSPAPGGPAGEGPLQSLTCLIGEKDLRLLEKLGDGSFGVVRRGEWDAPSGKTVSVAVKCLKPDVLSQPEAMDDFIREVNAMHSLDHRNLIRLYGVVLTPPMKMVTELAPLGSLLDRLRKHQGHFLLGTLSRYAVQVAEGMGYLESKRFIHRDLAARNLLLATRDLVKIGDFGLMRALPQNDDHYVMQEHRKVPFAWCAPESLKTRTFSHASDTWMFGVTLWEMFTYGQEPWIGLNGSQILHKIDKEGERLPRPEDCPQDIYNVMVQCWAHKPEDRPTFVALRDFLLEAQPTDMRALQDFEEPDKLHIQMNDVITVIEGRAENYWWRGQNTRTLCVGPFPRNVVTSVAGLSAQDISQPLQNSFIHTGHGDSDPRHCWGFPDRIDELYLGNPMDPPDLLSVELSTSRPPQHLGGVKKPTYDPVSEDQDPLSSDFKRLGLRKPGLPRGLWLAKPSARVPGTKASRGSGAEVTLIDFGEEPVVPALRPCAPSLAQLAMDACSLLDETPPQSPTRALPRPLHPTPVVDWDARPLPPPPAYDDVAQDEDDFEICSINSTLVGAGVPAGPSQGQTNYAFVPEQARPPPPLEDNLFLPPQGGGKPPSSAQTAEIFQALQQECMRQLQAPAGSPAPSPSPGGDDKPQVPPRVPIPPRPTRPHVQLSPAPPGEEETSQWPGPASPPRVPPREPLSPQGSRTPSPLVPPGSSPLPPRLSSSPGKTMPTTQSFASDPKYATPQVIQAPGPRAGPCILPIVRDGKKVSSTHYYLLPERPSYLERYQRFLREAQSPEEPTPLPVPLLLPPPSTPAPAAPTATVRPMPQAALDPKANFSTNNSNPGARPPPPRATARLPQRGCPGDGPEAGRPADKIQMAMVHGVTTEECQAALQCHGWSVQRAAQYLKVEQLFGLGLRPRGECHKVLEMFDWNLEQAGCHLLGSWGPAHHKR
The target of assay [5] is Glycogen synthase kinase-3 beta (Homo sapiens, UniProt P49841).
Sequence of Glycogen synthase kinase-3 beta (P49841 whole entry): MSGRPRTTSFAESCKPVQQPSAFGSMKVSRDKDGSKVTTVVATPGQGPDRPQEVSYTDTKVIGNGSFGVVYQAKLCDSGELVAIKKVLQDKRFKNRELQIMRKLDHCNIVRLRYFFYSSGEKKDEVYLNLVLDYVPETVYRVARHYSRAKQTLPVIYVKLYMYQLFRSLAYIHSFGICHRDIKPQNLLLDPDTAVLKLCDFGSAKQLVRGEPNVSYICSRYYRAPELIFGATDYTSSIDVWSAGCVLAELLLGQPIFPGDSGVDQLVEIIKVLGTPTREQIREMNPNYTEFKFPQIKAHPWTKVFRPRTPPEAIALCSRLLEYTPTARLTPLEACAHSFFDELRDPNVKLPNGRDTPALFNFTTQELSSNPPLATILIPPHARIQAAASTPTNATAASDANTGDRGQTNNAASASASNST
Another assay deals with T4, Heme oxygenase 2 (Homo sapiens, UniProt P30519).
T4 sequence (P30519 whole entry): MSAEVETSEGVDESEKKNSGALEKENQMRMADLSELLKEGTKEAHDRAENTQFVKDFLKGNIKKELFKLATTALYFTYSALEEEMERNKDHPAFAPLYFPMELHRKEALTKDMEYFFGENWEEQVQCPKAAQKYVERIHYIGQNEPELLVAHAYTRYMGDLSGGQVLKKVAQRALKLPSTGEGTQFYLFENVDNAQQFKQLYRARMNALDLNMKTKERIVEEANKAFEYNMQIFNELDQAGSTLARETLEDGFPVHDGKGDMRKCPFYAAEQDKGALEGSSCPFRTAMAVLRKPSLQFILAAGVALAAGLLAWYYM

Molecules are shown by their SMILES. Calls of active or inactive are those of the source.
Also: in the data inactive means no Kd found up to 30 µM.

On to `C[C@@H](Oc1cc(C(=O)Nc2ccc(C(=O)N3CCN(C)CC3)cc2)nnc1N)c1c(Cl)ccc(F)c1Cl`, for which the Kd (in assay [1]; in assay [2]; in assay [3]; in assay [4]; on Activated CDC42 kinase 1; in assay [5]) was > 30 µM (inactive) in each case. Moreover, the Kd (in general, the constant that tells how readily two partners part at equilibrium) at Heme oxygenase 2 was > 30 µM (inactive).

Consider `C[C@H]1CNCCCN1S(=O)(=O)c1cccc2cncc(F)c12`, for which the Kd (in assay [1]; in assay [2]; in assay [3]; in assay [4]; at Activated CDC42 kinase 1; in assay [5]) was > 30 µM (inactive) each time. Also, the Kd on Heme oxygenase 2 was > 30 µM (inactive).

Take `CCNC(=O)C#Cc1ccc2c(c1)NC(=O)/C2=C(\Nc1ccc(CN(C)C)cc1)c1ccccc1`: the Kd in assay [1] was > 30 µM (inactive); in assay [2] it was > 30 µM (inactive); in assay [3] it was > 30 µM (inactive); at Activated CDC42 kinase 1, 1.55 µM (active); in assay [5], > 30 µM (inactive); at Heme oxygenase 2, > 30 µM (inactive).

On to `C=CC(=O)N1CCC[C@H](n2c(=O)n(-c3ccc(Oc4ccccc4)cc3)c3c(N)ncnc32)C1`, for which the Kd (in assay [1]; in assay [2]; in assay [3]; on Activated CDC42 kinase 1; in assay [5]; at Heme oxygenase 2) was > 30 µM (inactive) each time.

Turning to `COCc1c(-c2ccc(NC(=O)Nc3cc(C(F)(F)F)ccc3F)c(F)c2)c2c(N)ncnn2c1CN1CCOCC1`, the Kd (in assay [1]; in assay [2]; in assay [3]; in assay [4]; at Activated CDC42 kinase 1; in assay [5]) was > 30 µM (inactive) in each case. At Heme oxygenase 2, the Kd was > 30 µM (inactive).

Regarding `Nc1ncnc2c1c(-c1cccc(OCc3ccccc3)c1)cn2[C@H]1C[C@@H](CN2CCC2)C1` [AEW-541], the Kd in assay [1] is > 30 µM (inactive); in assay [2] it was 0.835 µM (active); in assay [3], > 30 µM (inactive); in assay [4] it was > 30 µM (inactive); on Activated CDC42 kinase 1, > 30 µM (inactive); in assay [5] it was > 30 µM (inactive). Moreover, the Kd at Heme oxygenase 2 is > 30 µM (inactive).

Turning to `Cc1nc(NC(=O)N2CCC[C@H]2C(N)=O)sc1-c1ccnc(C(C)(C)C(F)(F)F)c1` [ALPELISIB], the Kd (in assay [1]; in assay [2]; in assay [3]; in assay [4]; at Activated CDC42 kinase 1; in assay [5]) was > 30 µM (inactive) throughout. At Heme oxygenase 2, the Kd is > 30 µM (inactive).

On to `Cc1csc(-c2nnc(Nc3ccc(Oc4ncccc4-c4ccnc(N)n4)cc3)c3ccccc23)c1` [AMG-900], for which the Kd (in assay [1]; in assay [2]; in assay [3]; in assay [4]; on Activated CDC42 kinase 1; in assay [5]) was > 30 µM (inactive) each time. At Heme oxygenase 2, the Kd is > 30 µM (inactive).

As for `O=C(Nc1c[nH]nc1-c1nc2cc(CN3CCOCC3)ccc2[nH]1)NC1CC1` [AT-9283], the Kd in assay [1] is > 30 µM (inactive); in assay [2] it was > 30 µM (inactive); in assay [3] it was > 30 µM (inactive); in assay [4], > 30 µM (inactive); at Activated CDC42 kinase 1, > 30 µM (inactive); in assay [5] it was 0.007 µM (active). For the same compound, the Kd on Heme oxygenase 2 was > 30 µM (inactive).

On to `C=CC(=O)Nc1cc2c(Nc3ccc(F)c(Cl)c3)ncnc2cc1C#CC(C)(C)N1CCN(C)CC1` [AV-412 FREE BASE], for which the Kd (in assay [1]; in assay [2]; in assay [3]; in assay [4]; on Activated CDC42 kinase 1; in assay [5]) was > 30 µM (inactive) in each case. Besides, the Kd on Heme oxygenase 2 was > 30 µM (inactive).

Turning to `COc1cc([C@@H]2c3cc4c(cc3[C@H](O)[C@H]3COC(=O)[C@@H]23)OCO4)cc(OC)c1OC` [AXL-1717], the Kd (in assay [1]; in assay [2]; in assay [3]; in assay [4]; at Activated CDC42 kinase 1; in assay [5]) was > 30 µM (inactive) throughout. Moreover, the Kd at Heme oxygenase 2 is > 30 µM (inactive).

As for `Cc1cc(C(=O)NOCCO)c(Nc2ccc(I)cc2F)n(C)c1=O` [AZD-8330], the Kd (in assay [1]; in assay [2]; in assay [3]; in assay [4]; at Activated CDC42 kinase 1; in assay [5]) was > 30 µM (inactive) in each case. Also, the Kd at Heme oxygenase 2 was > 30 µM (inactive).

For the compound `Cn1cnc2c(F)c(Nc3ccc(Br)cc3F)c(C(=O)NOCCO)cc21` [BINIMETINIB], the Kd (in assay [1]; in assay [2]; in assay [3]; in assay [4]; on Activated CDC42 kinase 1; in assay [5]) was > 30 µM (inactive) throughout. In addition, the Kd on Heme oxygenase 2 is > 30 µM (inactive).

On to `CCn1c(C(=O)N(C2CC2)C2CC2)cc2c3c(ncn3C)c(Nc3cc(C)n(C)n3)nc21` [BMS-911543], for which the Kd (in assay [1]; in assay [2]; in assay [3]; in assay [4]; on Activated CDC42 kinase 1; in assay [5]) was > 30 µM (inactive) each time. The Kd on Heme oxygenase 2 was > 30 µM (inactive).

Values taken from ChEMBL document CHEMBL3991601, “The target landscape of clinical kinase drugs” (Science, 2017).
